Like-named read-outs stand apart in the source and are kept apart here.
What was measured:
Settings in all cases: PKIS2 primary screening
SH-SY5Y cells [1] = test: Nuclear count from microscopy images (cellular growth and toxicity); note: reference of the scale not given here
endogenous TFE3 = test: TFE3 nuclear translocation, immunocytochemistry high-content imaging; format: cell-based
endogenous TFEB = test: TFEB nuclear translocation, immunocytochemistry high-content imaging; format: cell-based
SH-SY5Y cells [2] = test system: SH-SY5Y cells; note: reference of the scale not given here
SH-SY5Y cells [3] = test: AK (adenylate kinase) release ToxiLight cytotoxicity assay; note: reference of the scale not given here

Compound	Nuclear Count (SH-SY5Y cells [1])	TFE3 % (endogenous TFE3) [%]	TFEB % (endogenous TFEB) [%]	DQ Intensity (SH-SY5Y cells [2])	DQ Spot (SH-SY5Y cells [2])	AK (SH-SY5Y cells [3])	DQ Intensity (SH-SY5Y cells [2]; DQ Red BSA intensity)	DQ Spot (SH-SY5Y cells [2]; DQ Red BSA spot count)
CCn1c(-c2nonc2N)nc2c(C#CC(C)(C)O)ncc(OCCCCN)c21.O=C(O)C(F)(F)F.O=C(O)C(F)(F)F [UNC10225393A]	121.84	10.89	2.26	115.98	109.86	69.12		
Cn1cc(-c2ccc3c(c2)CCN3C(=O)Cc2cccc(C(F)(F)F)c2)c2c(N)ncnc21 [UNC10225165A]	103.31	14.20	6.03	124.78	91.55	93.68		
Cc1ccccc1Cn1ccn2c(=O)cc(N3CCOCC3)nc12 [UNC10225355A]	89.36	15.51	2.12	95.37	115.18	91.19		
COc1nccc(-c2c(-c3ccc(F)cc3)ncn2CCCN2CCOCC2)n1 [UNC10225213A]	107.77	16.14	5.79	119.56	105.70	78.43		
Fc1cccc(COc2ccc(Nc3ncnc4sc(-c5ccc[nH]5)cc34)cc2Cl)c1 [UNC10225101A]	106.63	15.82	8.38			123.35	109.09	86.09
COc1cccc(CNC(=O)NC2CCN(c3ccnc(Nc4cc(OC)c(OC)c(OC)c4)n3)C2)c1 (stereo not drawn) [GSK1379765]	98.25	15.97	3.20			74.87	73.44	97.23
CN(C(=O)c1ccc(-c2cc(-c3c[nH]nc3-c3ccccn3)ccn2)cc1)C1CCOCC1 [UNC10225473A]	84.56	13.07	8.39			101.87	126.52	117.08
Cc1n[nH]c2cc(Nc3ccnc(Nc4cccc(CN5CCOCC5)c4)n3)ccc12 [GW682569]	85.02	9.15	6.60			83.50	93.91	112.57
CS(=O)(=O)CCNCc1nc(-c2ccc3ncnc(Nc4ccc(OCc5cccc(F)c5)c(Cl)c4)c3c2)cs1.Cl [UNC10225091A]	114.33	9.84	5.83			98.46	63.39	82.01
CC(C)N1CCC(n2cnc(-c3ccc(F)cc3)c2-c2ccnc(N)n2)CC1 [UNC10225258A]	83.47	12.02	5.04	110.79	99.41	107.69		
CC(C)c1nc(-c2ccc(F)c(NS(=O)(=O)c3c(F)cccc3F)c2)c(-c2ccnc(Nc3ccc(N4CCOCC4)nc3)n2)s1 [UNC10225089A]	76.92	14.74	9.24	67.64	97.60	110.72		
COc1ccc(S(=O)(=O)NC2CCN(c3cc(C)nc(Nc4cccc(C#N)c4)n3)CC2)cc1 [GSK1653539]	97.37	12.26	5.30			67.09	59.46	82.66
Cc1nccc(-c2c(-c3ccc(F)cc3)ncn2CCCN2CCOCC2)n1.Cl [UNC10225493A]	97.00	13.96	4.71	90.01	96.19	100.35		
CN(C)CCOc1ccc(-c2cc(-c3c[nH]nc3-c3ccccn3)ccn2)cc1 [UNC10225226A]	49.06	7.10	11.71			93.65	136.49	114.20
Cc1ccc(NC(=O)Nc2ccccc2F)cc1-c1ccc(C(=O)Nc2ccncc2)cc1 [UNC10225398A]	104.03	17.53	7.18	90.99	98.29	135.60		
Nc1nc(-c2ccccn2)c(-c2ccnc3ccccc23)s1 [UNC10225201A]	144.30	10.28	4.25			81.66	97.54	92.32
Clc1ccc(-c2cc(-c3c[nH]nc3-c3ccccn3)ccn2)cc1 [UNC10225057A]	99.07	9.30	5.33			69.86	80.85	100.06

Source: article PMC9851200, “Multiparameter phenotypic screening for endogenous TFEB and TFE3 translocation identifies novel chemical series modulating lysosome function” (Autophagy, 2022)
